Data published in US20020086862A1, “Novel compounds” (AstraZeneca AB, priority 1998, published 2002).

| melting point | Compound |
| --- | --- |
| 231 to 233 °C | COc1ccc(-c2nn(Cc3cccc(Cl)c3)c(=S)[nH]2)cc1 [Example 48, 2-[(3-Chlorophenyl)methyl]-5-(4-methoxyphenyl)-1,2-dihydro-3H-1,2,4-triazole-3-thione] |
| 179 to 180 °C | S=c1[nH]c(-c2cccc(Cl)c2Cl)nn1Cc1ccccc1 [Example 8, 5-(2,3-Dichlorophenyl)-1,2-dihydro-2-(phenylmethyl)-3H-1,2,4-triazole-3-thione] |
| 168 to 170 °C | S=c1[nH]c(-c2ccc3ccccc3c2Br)nn1Cc1ccccc1 [Example 41, 1,2-Dihydro-5-(1-bromo-2-naphthalenyl)-2-(phenylmethyl)-3H-1,2,4-triazole-3-thione] |
| 249 to 250 °C | S=c1[nH]c(-c2ccc(-c3ccccc3)cc2)nn1Cc1ccccc1 [Example 15, 1,2-Dihydro-2-(phenylmethyl)-5-(4-phenylphenyl)-3H-1,2,4-triazole-3-thione] |
| 177 to 178 °C | Cc1cccc(Cn2nc(-c3ccc(Cl)cc3Cl)[nH]c2=S)c1 [Example 43, 5-(2,4-Dichlorophenyl)-1,2-dihydro-2-[(3-methylphenyl)methyl]-3H-1,2,4-triazole-3-thione] |
| 233 to 235 °C | Oc1cccc(Cn2nc(-c3ccccc3)[nH]c2=S)c1 [Example 35, 1,2-Dihydro-2-[(3-hydroxyphenyl)methyl]-5-phenyl-3H-1,2,4-triazole-3-thione] |
| 166 to 167 °C | Cc1ccc(C)c(Cn2nc(-c3ccccc3Cl)[nH]c2=S)c1 [Example 60] |
| 182 to 183 °C | O=[N+]([O-])c1ccc(Cn2nc(-c3ccccc3Cl)[nH]c2=S)cc1 [Example 65, 5-(2-Chlorophenyl)-1,2-dihydro-2-[(4-nitrophenyl)methyl]-3H-1,2,4-triazoe-3-thione] |
| 204 to 207 °C | S=c1[nH]c(-c2cncnc2)nn1Cc1cccc(Cl)c1 [Example 63, 2-[(3-Chlorophenyl)methyl]-5-(pyrrndin-5-yl) 1,2-dihydro-3H-1,2,4-triazole-3-thione] |
| 256 to 258 °C | O=[N+]([O-])c1ccc(-c2nn(Cc3cccc(Cl)c3)c(=S)[nH]2)cc1 [Example 62, 2-[(3-Chlorophenyl)methyl]-5-(4-nitrophenyl)-1,2-dihydro-3H-1,2,4-triazole-3-thione] |
| 230 to 231 °C | S=c1[nH]c(-c2cccs2)nn1Cc1ccccc1 [Example 31, 1,2-Dihydro-2-(phenylmethyl)-5-(2-thienyl)-3H-1,2,4-triazole-3-thione] |
| 180 to 181 °C | S=c1[nH]c(-c2ccc(Cl)cc2Cl)nn1Cc1cccc(Oc2ccccc2)c1 [Example 34, 5-(2,4-Dichlorophenyl)-1,2-dihydro-2-[(3-phenoxyphenyl)methyl]-3H-1,2,4-triazole-3-thione] |
| 131 to 133 °C | S=c1[nH]c(-c2ccccc2Cl)nn1CCc1ccccc1 [Example 66, 5-(2-Chlorophenyl)-1,2-dihydro-2-(2-phenyl)ethyl-3H-1,2,4-triazole-3-thione] |
| 179 to 182 °C | S=c1[nH]c(-c2ccc(Cl)cc2Cl)nn1CCc1ccccc1 [Example 44, 5-(2,4-Dichlorophenyl)-1,2-dihydro-2-(2-phenylethyl)-3H-1,2,4-triazole-3-thione] |
| 180 to 183 °C | Fc1ccccc1-c1nn(Cc2ccccc2)c(=S)[nH]1 [Example 17, 5-(2-Fluorophenyl)-1,2-dihydro-2-(phenylmethyl)-3H-1,2,4-triazole-3-thione] |
| 161 to 163 °C | N#Cc1cccc(Cn2nc(-c3ccccc3Cl)[nH]c2=S)c1 [Example 64, 5-(2-Chlorophenyl)-1,2-dihydro-2-[(3-cyanophenyl)methyl]-3H-1,2,4-triazole-3-thione] |
| 139 to 140 °C | S=c1[nH]c(-c2ccccc2Br)nn1Cc1ccccc1 [Example 9, 5-(2-Bromophenyl)-1,2-dihydro-2-(phenylmethyl)-3H-1,2,4-triazole-3-thione] |
